Reference: US7589123B2, “Chemical compounds” (Phytopharm PLC, priority 2006, dated 2009)

Experiments:
[1] = test system: IL-1α-induced PGE2 release; test: IL-1α-induced PGE2 release in human diploid lung fibroblasts (WI-38) (Assay 5); type: cell-based; details: Homo sapiens, WI-38 cells, IL-1α 1 nM, overnight
Summary of the method: (§1)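 WI-38 fibroblasts stimulated overnight at 37 °C with 1 nM IL-1α plus test compound at 3 and 30 μM in MEM with 10% FBS, pH 7.3; released PGE2 in supernatant quantified by radioimmunoassay as percent inhibition. Viability then checked by Alamar Blue, 4 h at 37 °C, fluorescence ex 530/em 590 nm.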

WI-38 cells = test: Viability of WI-38 cells, Alamar Blue (Assay 5); type: cell-based, human
Summary of the method: as §1

TRPV1 receptor = TRPV1 receptor (Rattus norvegicus, UniProt O35433); test: TRPV1 modulation in DRG neurones: CGRP release in absence and presence of capsaicin (Assay 2); type: cell-based; set-up: The culture used for this experiment contained sensory neurones, Schwann cells and fibroblasts; endogenous in cells; host or cells: primary rat DRG sensory neurone culture (with Schwann cells and fibroblasts); details: 20 min; for inhibition at 3 µM: 3 μM with capsaicin 1 μM; for inhibition at 3 µM / inhibition at 30 µM: −ve: inhibition, +ve: potentiation of capsaicin response, read-out: Effect of test compounds on capsaicin (1 μM)-induced CGRP release (%); for inhibition at 30 µM: 30 μM with capsaicin 1 μM; for Emax at 3 µM: test compound alone 3 μM; for Emax at 3 µM / Emax at 30 µM: rat DRG sensory neurones, read-out: CGRP release (% of capsaicin (1 μM) response); for Emax at 30 µM: test compound alone 30 μM
[2] = test system: ovalbumin-sensitised guinea pigs; test: Ovalbumin-sensitised guinea pigs, a model of asthma in vivo (Assay 7); set-up: species or system guinea pig; details: oral gavage 30 mg/kg/day for 7 days
Method: Dunkin-Hartley guinea pigs were sensitised to ovalbumin using two interperitoneal injections of ovalbumin (20 μg) in Al(OH)3 gel (1.65 mg) on days 1 and 11. On day 25 compound 2 was administered by oral gavage (30 mg/kg/day) for 7 days. On day 31, approximately 2 h after the last administration of compound 2, each guinea pig was anaesthetised with urethane (1750 mg/kg, i.p.) and artificially ventilated via a tracheal cannula connected to a Fleisch pneumotachograph (size 00) and a differential pressure transducer (±2 cm H2O; PT5, Grass Astro-Med Inc., USA). Total pulmonary resistance (RL) was calculated online by integration of flow, tidal volume and transpulmonary pressure. Pulmonary resistance was recorded for approximately 5 min before ovalbumin (300 μg/ml, i.v) challenge and for approximately 15 min following ovalbumin challenge and was recorded in real time using a computer data acquisition system (Po-ne-Mah, USA).

[3] = test system: ovalbumin-sensitised mice; test: Ovalbumin-sensitised mice, a chronic model of asthma in vivo (Assay 8); details: for methacholine-induced increase in penH (enhanced pause) / Increase in penH: day 54; for methacholine-induced increase in penH (enhanced pause): methacholine challenge 50 mg/kg; for methacholine-induced increase in penH (enhanced pause) / eosinophil infiltration into the lung / IL-13 concentrations in the BAL / amount of lung remodelling (histopathology grading): oral gavage 20 days: compound 2 3, compound 32 30, budesonide 1, montelukast 10 mg/kg/day; for eosinophil infiltration into the lung: day 55, BAL cytospins; for Eosinophil infiltration / IL-4 concentration / IL-13 concentration / Histopathology score / Increase in penH: mean ± s.e.mean, oral gavage 20 days: 2 3 mg/kg/day, 32 30 mg/kg/day, budesonide 1 mg/kg/day, montelukast 10 mg/kg/day; for Eosinophil infiltration / IL-4 concentration / IL-13 concentration: BAL fluid day 55; for Eosinophil infiltration: sensitised 192.1 ± 33.2; for IL-4 concentration: sensitised 231.2 ± 62.4; for IL-13 concentration: sensitised 241.9 ± 89.3; for Histopathology score: lung remodelling, sensitised 541.6 ± 36.1; for Increase in penH: methacholine challenge, sensitised 193.0 ± 61.7
Method: Mice (BALB/c from Harlan-Olac) were sensitised to ovalbumin using two interperitoneal injections of ovalbumin (10 μg) and alum (200 μl) on day 1 and 14 followed by a 20 min, daily exposure to a ovalbumin aerosol (5%) on days 19-23 and then a thrice weekly 20 min, exposure to a ovalbumin aerosol (5%) on days 24-55. […] On day 54, mice were placed in BUXCO four chamber whole body plethysmographs and breathing-associated pressure changes were recorded which were then used to calculate enhanced pause (penH), a measurement of airways resistance, in response to a methacholine challenge.
On day 55 the mice were killed and brochoalveolar lavage (BAL) fluid was collected and cytospins prepared to measure eosinophil infiltration. In addition, concentrations of interleukin-4 (IL-4) and interleukin-13 (IL-13) were measured in the BAL fluid. Furthermore, lung samples were taken, examined by a histopathologist and scored using a grading system to describe the degree of lung remodelling.

TRPV1 receptor, sequence (O35433 whole entry): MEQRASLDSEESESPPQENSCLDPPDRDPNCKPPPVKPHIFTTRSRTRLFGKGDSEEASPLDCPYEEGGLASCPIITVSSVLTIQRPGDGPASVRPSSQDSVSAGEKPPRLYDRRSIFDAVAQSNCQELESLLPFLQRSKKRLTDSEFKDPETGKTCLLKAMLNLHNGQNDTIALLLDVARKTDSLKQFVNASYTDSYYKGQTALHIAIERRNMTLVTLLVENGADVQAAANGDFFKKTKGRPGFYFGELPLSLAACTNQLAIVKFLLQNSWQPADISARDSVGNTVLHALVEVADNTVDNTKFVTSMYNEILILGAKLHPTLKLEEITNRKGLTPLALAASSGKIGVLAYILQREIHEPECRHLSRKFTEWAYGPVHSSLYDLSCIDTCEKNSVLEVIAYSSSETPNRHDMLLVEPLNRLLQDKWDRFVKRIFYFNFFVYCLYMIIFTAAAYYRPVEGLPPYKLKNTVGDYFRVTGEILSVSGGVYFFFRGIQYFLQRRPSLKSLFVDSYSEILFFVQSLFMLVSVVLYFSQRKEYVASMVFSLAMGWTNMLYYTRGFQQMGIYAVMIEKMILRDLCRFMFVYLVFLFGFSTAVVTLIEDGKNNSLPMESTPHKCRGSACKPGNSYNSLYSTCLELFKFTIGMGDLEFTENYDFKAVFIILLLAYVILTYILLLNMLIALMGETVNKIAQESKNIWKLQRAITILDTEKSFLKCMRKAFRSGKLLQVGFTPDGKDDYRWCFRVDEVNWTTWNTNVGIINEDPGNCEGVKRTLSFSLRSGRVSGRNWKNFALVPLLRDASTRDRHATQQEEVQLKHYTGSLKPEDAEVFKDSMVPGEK

| Compound | inhibition at 3 µM [1] [%] | inhibition at 30 µM [1] [%] | Decrease in cell viability (%) (WI-38 cells; 3 μM) | Decrease in cell viability (%) (WI-38 cells; 30 μM) | inhibition at 3 µM (TRPV1 receptor) [%] | inhibition at 30 µM (TRPV1 receptor) [%] | Emax at 3 µM (TRPV1 receptor) [%] | Emax at 30 µM (TRPV1 receptor) [%] | increase in pulmonary resistance following ovalbumin exposure ([2]; ovalbumin 300 μg/kg i.v. challenge, vehicle control group 228±57%) [%] | increase in pulmonary resistance compared with vehicle control ([2]; ovalbumin i.v. challenge) | methacholine-induced increase in penH (enhanced pause) [3] | eosinophil infiltration into the lung [3] | IL-13 concentrations in the BAL ([3]; day 55) | amount of lung remodelling (histopathology grading) ([3]; day 55) | Eosinophil infiltration [3] | IL-4 concentration [3] | IL-13 concentration [3] | Histopathology score ([3]; day 55) | Increase in penH [3] | IL-4 concentration in the BAL ([3]; day 55, oral gavage 20 days: compound 32 30, budesonide 1, montelukast 10 mg/kg/day) |
| --- | --- | --- | --- | --- | --- | --- | --- | --- | --- | --- | --- | --- | --- | --- | --- | --- | --- | --- | --- | --- |
| COc1cc(CCC(=O)CC(=O)c2ccccc2)ccc1O [Compound 69, 5-(4-Hydroxy-3-methoxyphenyl)-1-phenyl-pentane-1,3-dione] | 89 | 102 | 3 | 4 | -49 | 23 | 49 | 36 |  |  |  |  |  |  |  |  |  |  |  |  |
| COc1cc(CCC(=O)C(C)C(=O)c2ccccc2)ccc1O (stereo not shown) [Compound 11, 5-(4-Hydroxy-3-methoxy-phenyl)-2-methyl-1-phenyl-pentane-1,3-dione] | 79 | 100 | 1 | −7 | 8 | 12 | 24 | 111 |  |  |  |  |  |  |  |  |  |  |  |  |
| COc1cc(CCC(=O)CC(=O)C2(C)CC2)ccc1O [Compound 6, 5-(4-Hydroxy-3-methoxyphenyl)-1-(1-methylcyclopropyl)-pentane-1,3-dione] | 88 | 102 | 6 | 4 | 15 | 28 | 52 | 49 |  |  |  |  |  |  |  |  |  |  |  |  |
| COc1cc(CCC(=O)CC(=O)C(C)(C)C)ccc1O [Compound 2, 6,6-Dimethyl-1-(4-hydroxy-3-methoxyphenyl)-heptane-3,5-dione] | 88 | 102 | −2 | 4 | -46 | -8 | 20 | 117 | 132±15 | significantly lower than vehicle control | decreased | reduced | reduced | reduced | 83.0 ± 10.8% of control | 238.2 ± 57.1% of control | 183.0 ± 60.9% of control | 450.0 ± 33.4% of control | 107.4 ± 21.5% of control |  |
| COc1cc(CCC(=O)C(C)(C)C(=O)c2ccccc2)ccc1O [Compound 32, 2,2-Dimethyl-5-(4-hydroxy-3-methoxy-phenyl)-1-phenyl-pentane-1,3-dione] | 67 | 101 | −4 | −3 | 47 | 40 | 22 | 21 |  |  | decreased | reduced | reduced | reduced | 106.6 ± 19.9% of control | 168.0 ± 50.8% of control | 148.7 ± 88.4% of control | 339.3 ± 45.0% of control | 153.5 ± 29.0% of control | reduced |
